Experimental data reported in US7432260B2, “Pyrimidine compounds” (Cyclacel Limted, priority 2002, dated 2008).
Where two headings read alike, the source gives them in different places.

Key:
[1] = molecular target: CDK1/cyclin B (Homo sapiens, UniProt P06493); test: Kinase assay CDK1/cyclin B; type: biochemical
Summary of the method: (§1)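 Enzyme + substrate in β-glycerophosphate/MOPS/EGTA/DTT buffer, pH 7.4 → Mg/ATP (100 μM ATP, γ-32P) start → 30° C incubation → ice stop → P81 or GF/C filtration, H3PO4 wash → scintillation count.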

[2] = molecular target: CDK2/cyclin E (Homo sapiens, UniProt P24941); test: Kinase assay CDK2/cyclin E; type: biochemical
Summary of the method: as §1

[3] = molecular target: CDK4/cyclin D1 (Homo sapiens, UniProt P11802); test: Kinase assay CDK4/cyclin D1; type: biochemical
Summary of the method: as §1

[4] = molecular target: CDK7/cyclin H (Homo sapiens, UniProt P50613); test: CDK7 assay; type: biochemical
Summary of the method: (§2)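 Recombinant human CDK7/cyclin H or CDK9/cyclin T1 (0.5–2 μg) phosphorylated biotinylated CTD heptapeptide-repeat substrate for 45 min at 30 °C in MOPS pH 7.2 buffer with 15 mM MgCl2 and 100 μM ATP plus [γ-32P]ATP. After avidin capture on P81 filters and phosphoric acid washes, 32P incorporation was counted by scintillation.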

[5] = molecular target: CDK9/cyclin T1 (Homo sapiens, UniProt P50750); test: CDK9 assay; type: biochemical
Summary of the method: as §2

[6] = molecular target: GSK-3β (Homo sapiens, UniProt P49841); test: Kinase assay GSK-3β; type: biochemical
Summary of the method: as §1

[7] = molecular target: PLK-1 (Homo sapiens, UniProt P53350); test: Kinase assay PLK-1; type: biochemical
Description: (§3) Kinase assays. […] This was achieved by measurement of incorporation of radioactive phosphate from ATP into appropriate polypeptide substrates. Recombinant protein kinases and kinase complexes were produced or obtained commercially. Assays were performed using 96-well plates and appropriate assay buffers (typically 25 mM β-glycerophosphate, 20 mM MOPS, 5 mM EGTA, 1 mM DTT, 1 mM […], pH 7.4), into which were added 2-4 μg of active enzyme with appropriate substrates. The reactions were initiated by addition of Mg/ATP mix (15 mM MgCl2+100 μM ATP with 30-50 kBq per well of [γ-^32P]-ATP) and mixtures incubated as required at 30° C. Reactions were stopped on ice, followed by filtration through p81 filterplates or GF/C filterplates (Whatman Polyfiltronics, Kent, UK). After washing 3 times with 75 mM aq orthophosphoric acid, plates were dried, scintillant added and incorporated radioactivity measured in a scintillation counter (TopCount, Packard Instruments, Pangbourne, Berks, UK). Compounds for kinase assay were made-up as 10 mM stocks in DMSO and diluted into 10% DMSO inrassay buffer.

[8] = molecular target: PKCα (protein kinase C α) (Homo sapiens, UniProt P17252); test: Kinase assay PKCα; type: biochemical; conditions: Table 3 selectivity panel; read-out: Kinase specificity IC50 PKCα
Description: as §3

[9] = test system: A549; test: 72-h MTT cytotoxicity assay A549; type: cell-based; conditions: Homo sapiens, A549, 72 h
Summary of the method: (§4)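 Cells were seeded according to doubling time, then exposed to 1/3 serial dilutions of compound in triplicate for 72 h at 37 °C. MTT was added for 4 h at 37 °C in the dark, and the formazan was dissolved in DMSO.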

[10] = test system: HT29; test: 72-h MTT cytotoxicity assay HT29; type: cell-based; conditions: Homo sapiens, HT-29, 72 h
Summary of the method: as §4

[11] = test system: Saos-2; test: 72-h MTT cytotoxicity assay Saos-2; type: cell-based; conditions: Homo sapiens, SAOS-2, 72 h
Summary of the method: as §4

[12] = test system: U2OS; test: 72-h MTT cytotoxicity assay U2OS; type: cell-based; conditions: Homo sapiens, Table 5, Bone osteosarcoma
Description: (§5) MTT cytotoxicity assay. […] Standard 72-h MTT (thiazolyl blue; 3-[4,5-dimethylthiazol-2-yl]-2,5-diphenyltetrazolium bromide) assays were performed (Haselsberger, K.; Peterson, D. C.; Thomas, D. G.; Darling, J. L. Anti Cancer Drugs 1996, 7, 331-8; Loveland, B. E.; Johns, T. G.; Mackay, I. R.; Vaillant, F.; Wang, Z. X.; Hertzog, P. J. Biochemistry International 1992, 27, 501-10). In short: cells were seeded into 96-well plates according to doubling time and incubated overnight at 37° C. Test compounds were made up in DMSO and a 1/3 dilution series prepared in 100 μL cell media, added to cells (in triplicates) and incubated for 72 ho at 37° C. MTT was made up as a stock of 5 mg/mL in cell media and filter-sterilised. Media was removed from cells followed by a wash with 200 μL PBS.
(§6) MTT solution was then added at 20 μL per well and incubated in the dark at 37° C. for 4 h. MTT solution was removed and cells again washed with 200 μL PBS. MTT dye was solubilised with 200 μL per well of DMSO with agitation.

[13] = test system: H1299; test: 72-h MTT cytotoxicity assay H1299; type: cell-based; conditions: Homo sapiens, NCI-H1299, 72 h; Table 5; Lung
Description: as §5, §6

[14] = test system: SKUT-1B; test: 72-h MTT cytotoxicity assay SKUT-1B; type: cell-based; conditions: Homo sapiens, Skut1B, Table 5, Leiomyosarcoma
Description: as §5, §6

[15] = test system: K562; test: 72-h MTT cytotoxicity assay K562; type: cell-based; conditions: Homo sapiens, K562, 72 h; Table 5; Chronic myelogenous leukaemia
Description: as §5, §6

[16] = test system: nci-H460; test: 72-h MTT cytotoxicity assay nci-H460; type: cell-based; conditions: Homo sapiens, NCI-H460, 72 h; Table 5; Lung
Description: as §5, §6

[17] = test system: SK-N-MC; test: 72-h MTT cytotoxicity assay SK-N-MC; type: cell-based; conditions: Homo sapiens, Table 5, Neuroblastoma
Description: as §5, §6

[18] = test system: DU-145; test: 72-h MTT cytotoxicity assay DU-145; type: cell-based; conditions: Homo sapiens, DU-145, 72 h; Table 5; Prostate
Description: as §5, §6

[19] = Table 2, read-out: Kinase Inhibition IC50 CDK1 cyclin B
[20] = Table 3 selectivity panel, read-out: Kinase specificity IC50 CDK1/B1
[21] = Table 2, read-out: Kinase Inhibition IC50 CDK2 cyclin E
[22] = Table 3 selectivity panel, read-out: Kinase specificity IC50 CDK2/E
[23] = Table 2, read-out: Kinase Inhibition IC50 CDK4 cyclin D1
[24] = Table 3 selectivity panel, read-out: Kinase specificity IC50 CDK4/D1
[25] = Table 2, read-out: Kinase Inhibition IC50 CDK7 cyclin H
[26] = Table 3 selectivity panel, CDK7/cyclin H/MAT 1 complex, read-out: Kinase specificity IC50 CDK7/H
[27] = Table 2, read-out: Kinase Inhibition IC50 CDK9 cyclin T1
[28] = Table 3 selectivity panel, read-out: Kinase specificity IC50 CDK9/T1
[29] = Table 2, read-out: Kinase Inhibition IC50 GSK-3β
[30] = Table 3 selectivity panel, glycogen synthase kinase 3β, read-out: Kinase specificity IC50 GSK-3
[31] = Table 2, read-out: Kinase Inhibition IC50 PLK-1
[32] = Table 3 selectivity panel, read-out: Kinase specificity IC50 PLK1

Chain of CDK1/cyclin B (P06493 whole entry): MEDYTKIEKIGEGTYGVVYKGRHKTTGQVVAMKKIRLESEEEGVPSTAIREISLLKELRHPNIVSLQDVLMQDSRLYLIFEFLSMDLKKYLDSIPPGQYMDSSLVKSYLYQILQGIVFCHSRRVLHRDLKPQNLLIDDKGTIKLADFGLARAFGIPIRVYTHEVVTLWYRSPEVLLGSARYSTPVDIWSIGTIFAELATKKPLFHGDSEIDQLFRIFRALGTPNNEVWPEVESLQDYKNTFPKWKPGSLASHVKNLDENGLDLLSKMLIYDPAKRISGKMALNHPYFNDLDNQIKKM
Chain of CDK1/cyclin B (P14635 whole entry partner): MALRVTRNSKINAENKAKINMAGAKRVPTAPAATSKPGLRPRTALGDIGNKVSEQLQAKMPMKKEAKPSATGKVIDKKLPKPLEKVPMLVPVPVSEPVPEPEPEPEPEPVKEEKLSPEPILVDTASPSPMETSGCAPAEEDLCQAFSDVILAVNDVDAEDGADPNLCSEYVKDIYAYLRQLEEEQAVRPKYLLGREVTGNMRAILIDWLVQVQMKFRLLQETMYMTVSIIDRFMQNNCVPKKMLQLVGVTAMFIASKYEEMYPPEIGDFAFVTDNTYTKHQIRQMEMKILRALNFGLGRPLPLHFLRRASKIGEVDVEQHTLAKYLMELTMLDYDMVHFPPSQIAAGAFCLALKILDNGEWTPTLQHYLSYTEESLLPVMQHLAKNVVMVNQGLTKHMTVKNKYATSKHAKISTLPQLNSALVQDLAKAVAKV
Chain of CDK9/cyclin T1 (P50750 whole entry): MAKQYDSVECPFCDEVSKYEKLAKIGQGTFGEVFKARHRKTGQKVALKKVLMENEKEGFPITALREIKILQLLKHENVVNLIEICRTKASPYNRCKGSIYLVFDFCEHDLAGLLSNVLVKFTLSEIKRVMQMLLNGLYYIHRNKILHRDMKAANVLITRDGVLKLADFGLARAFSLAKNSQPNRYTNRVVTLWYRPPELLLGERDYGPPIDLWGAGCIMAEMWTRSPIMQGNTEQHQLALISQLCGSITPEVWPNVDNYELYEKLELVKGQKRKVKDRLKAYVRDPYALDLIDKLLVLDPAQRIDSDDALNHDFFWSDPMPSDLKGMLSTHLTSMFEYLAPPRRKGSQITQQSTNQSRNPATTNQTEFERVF
Chain of CDK9/cyclin T1 (O60563 whole entry partner): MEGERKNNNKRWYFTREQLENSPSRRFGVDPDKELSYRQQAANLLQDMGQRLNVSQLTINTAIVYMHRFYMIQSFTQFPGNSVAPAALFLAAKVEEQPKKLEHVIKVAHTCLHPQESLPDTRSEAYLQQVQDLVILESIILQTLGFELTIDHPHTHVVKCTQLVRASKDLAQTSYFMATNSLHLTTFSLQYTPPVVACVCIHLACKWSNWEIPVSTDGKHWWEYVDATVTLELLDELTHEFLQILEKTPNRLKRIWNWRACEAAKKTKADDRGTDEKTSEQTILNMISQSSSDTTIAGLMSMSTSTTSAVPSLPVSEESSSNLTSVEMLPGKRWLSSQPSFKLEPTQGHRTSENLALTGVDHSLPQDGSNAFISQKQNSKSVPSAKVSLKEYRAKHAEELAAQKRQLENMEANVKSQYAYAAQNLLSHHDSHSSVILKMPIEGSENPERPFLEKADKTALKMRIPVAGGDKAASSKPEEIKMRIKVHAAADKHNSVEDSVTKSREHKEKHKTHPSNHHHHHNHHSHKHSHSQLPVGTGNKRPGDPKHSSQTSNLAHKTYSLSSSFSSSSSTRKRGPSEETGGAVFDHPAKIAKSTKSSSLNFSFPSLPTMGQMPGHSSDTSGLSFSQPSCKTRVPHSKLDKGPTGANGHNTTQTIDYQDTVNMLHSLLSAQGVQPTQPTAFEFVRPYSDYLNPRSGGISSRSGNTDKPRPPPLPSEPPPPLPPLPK
Chain of GSK-3β (P49841 whole entry): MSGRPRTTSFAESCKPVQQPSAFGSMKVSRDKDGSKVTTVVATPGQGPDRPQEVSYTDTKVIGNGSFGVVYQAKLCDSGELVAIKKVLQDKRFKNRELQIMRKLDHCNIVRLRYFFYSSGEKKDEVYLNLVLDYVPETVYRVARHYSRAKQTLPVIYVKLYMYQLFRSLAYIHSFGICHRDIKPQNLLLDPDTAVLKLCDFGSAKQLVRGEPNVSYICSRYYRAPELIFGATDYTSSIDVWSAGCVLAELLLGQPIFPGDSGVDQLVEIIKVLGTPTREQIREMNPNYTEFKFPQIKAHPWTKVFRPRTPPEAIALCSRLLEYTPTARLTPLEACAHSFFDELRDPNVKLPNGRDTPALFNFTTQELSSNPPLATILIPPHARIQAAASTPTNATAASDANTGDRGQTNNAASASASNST
Chain of PLK-1 (P53350 whole entry): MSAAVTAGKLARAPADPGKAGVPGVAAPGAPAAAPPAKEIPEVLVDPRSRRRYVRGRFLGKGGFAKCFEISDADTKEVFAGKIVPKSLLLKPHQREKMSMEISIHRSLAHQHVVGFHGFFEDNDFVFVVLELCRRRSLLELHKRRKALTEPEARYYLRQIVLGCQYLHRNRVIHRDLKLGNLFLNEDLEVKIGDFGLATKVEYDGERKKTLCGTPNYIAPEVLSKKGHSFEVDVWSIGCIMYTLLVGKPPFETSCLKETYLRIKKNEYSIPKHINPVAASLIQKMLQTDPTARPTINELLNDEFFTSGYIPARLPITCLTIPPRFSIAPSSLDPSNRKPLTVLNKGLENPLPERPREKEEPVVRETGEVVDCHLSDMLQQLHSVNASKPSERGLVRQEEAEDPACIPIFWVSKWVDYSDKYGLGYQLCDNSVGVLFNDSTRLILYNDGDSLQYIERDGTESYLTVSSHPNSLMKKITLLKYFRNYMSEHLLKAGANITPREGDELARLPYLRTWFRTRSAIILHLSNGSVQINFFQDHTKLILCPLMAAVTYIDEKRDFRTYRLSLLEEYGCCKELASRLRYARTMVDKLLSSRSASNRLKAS
Chain of CDK7/cyclin H (P50613 whole entry): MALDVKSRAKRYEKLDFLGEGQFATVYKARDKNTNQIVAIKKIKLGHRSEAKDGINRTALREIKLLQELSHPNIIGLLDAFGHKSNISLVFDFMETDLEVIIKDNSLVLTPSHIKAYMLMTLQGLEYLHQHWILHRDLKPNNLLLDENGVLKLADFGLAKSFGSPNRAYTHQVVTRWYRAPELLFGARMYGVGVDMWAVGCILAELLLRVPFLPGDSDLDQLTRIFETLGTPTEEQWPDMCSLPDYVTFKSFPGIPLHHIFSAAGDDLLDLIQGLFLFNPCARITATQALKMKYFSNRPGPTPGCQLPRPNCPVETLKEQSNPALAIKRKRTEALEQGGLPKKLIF
Chain of CDK4/cyclin D1 (P11802 whole entry): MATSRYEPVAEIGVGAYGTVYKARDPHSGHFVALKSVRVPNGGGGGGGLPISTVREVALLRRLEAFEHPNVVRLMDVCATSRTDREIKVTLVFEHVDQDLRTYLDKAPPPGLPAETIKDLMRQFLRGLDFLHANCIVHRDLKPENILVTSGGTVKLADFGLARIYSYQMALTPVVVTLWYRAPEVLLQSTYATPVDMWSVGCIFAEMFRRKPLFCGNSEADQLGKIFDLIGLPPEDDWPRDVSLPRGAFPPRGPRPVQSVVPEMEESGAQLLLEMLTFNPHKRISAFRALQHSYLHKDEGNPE
Chain of CDK4/cyclin D1 (P24385 whole entry partner): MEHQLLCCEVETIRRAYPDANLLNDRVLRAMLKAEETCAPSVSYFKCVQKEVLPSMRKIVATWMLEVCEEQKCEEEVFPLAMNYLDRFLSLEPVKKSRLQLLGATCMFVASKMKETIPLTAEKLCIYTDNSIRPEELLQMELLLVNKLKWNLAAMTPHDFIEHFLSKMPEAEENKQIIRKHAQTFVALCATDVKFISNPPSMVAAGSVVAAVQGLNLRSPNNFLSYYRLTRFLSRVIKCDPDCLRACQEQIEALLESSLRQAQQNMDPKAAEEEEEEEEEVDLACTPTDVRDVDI

| SMILES | IC50 [1, 19] | IC50 [1, 20] | IC50 [2, 21] | IC50 [3, 23] | IC50 [3, 24] | IC50 [4, 25] | IC50 [4, 26] | IC50 [5, 27] | IC50 [5, 28] | IC50 [6, 29] | IC50 [6, 30] | IC50 [7, 31] | IC50 [7, 32] | IC50 [8] | IC50 ([9]; Table 4) | IC50 ([9]; Table 5, Lung) | IC50 ([10]; Table 4) | IC50 ([10]; Table 5, Colon) | IC50 ([11]; Table 5, Bone osteosarcoma) | IC50 ([11]; Table 4) | also measured |
| --- | --- | --- | --- | --- | --- | --- | --- | --- | --- | --- | --- | --- | --- | --- | --- | --- | --- | --- | --- | --- | --- |
| CC[C@@H](N)C(=O)Nc1nc(C)c(-c2ccnc(Nc3cccc([N+](=O)[O-])c3)n2)s1 [Compound 16, (2R)-2-Amino-N-{4-methyl-5-[2-(3-nitro-phenylamino)-pyrimidin-4-yl]-thiazol-2-yl}-butyramide] | 2800 nM | 2800 nM | 320 nM | 6700 nM | 6700 nM | 1100 nM | 970 nM | 110 nM | 200 nM | 680 nM | 680 nM | > 150000 nM | > 100000 nM | 53000 nM | 530 nM | 500 nM | 290 nM | 300 nM | 600 nM | – | IC50 [2, 22]: 350 nM; IC50 [12]: 480 nM; IC50 [13]: 600 nM; IC50 [14]: 100 nM; IC50 [15]: 2500 nM; IC50 [16]: 300 nM; IC50 [17]: 400 nM; IC50 [18]: 600 nM |
| Cc1nc(C)c(-c2ccnc(Nc3ccc(NC(=O)CN4CCCC4)cc3)n2)s1 [Compound 53, N-{4-[4-(2,4-Dimethyl-thiazol-5-yl)-pyrimidin-2-ylamino]-phenyl}-2-pyrrolidin-1-yl-acetamide] | 5200 nM | – | 520 nM | 40 nM | – | 440 nM | – | 93 nM | – | 23000 nM | – | – | – | – | 770 nM | – | 950 nM | – | – | 530 nM | – |
| Cc1nc(NC(=O)[C@H](N)[C@@H](C)O)sc1-c1ccnc(Nc2cccc([N+](=O)[O-])c2)n1 [Compound 15, (2R,3R)-2-Amino-3-hydroxy-N-{4-methyl-5-[2-(3-nitro-phenylamino)-pyrimidin-4-yl]-thiazol-2-yl}-butyramide] | 5400 nM | 1600 nM | 130 nM | 2000 nM | 1600 nM | 340 nM | 390 nM | 70 nM | 110 nM | 610 nM | 540 nM | > 150000 nM | > 100000 nM | > 100000 nM | 1100 nM | 600 nM | 1000 nM | 500 nM | 400 nM | 1900 nM | IC50 [2, 22]: 150 nM; IC50 [12]: 1020 nM; IC50 [13]: 1300 nM; IC50 [14]: 200 nM; IC50 [15]: 4600 nM; IC50 [16]: 1200 nM; IC50 [17]: 500 nM; IC50 [18]: 1300 nM |
| CCNc1nc(C)c(-c2ccnc(Nc3ccc(N4CCOCC4)cc3)n2)s1 [Compound 4, [4-(2-Ethylamino-4-methyl-thiazol-5-yl)-pyrimidin-2-yl]-(4-morpholin-4-yl-phenyl)-amine] | 30000 nM | – | – | 430 nM | – | 12000 nM | – | 1800 nM | – | > 100000 nM | – | > 100000 nM | – | – | 770 nM | – | 920 nM | – | – | 1200 nM | – |
| CNc1nc(C)c(-c2ccnc(Nc3ccc(N4CCOCC4)cc3)n2)s1 [Compound 3, [4-(2-N-Methylamino-4-methyl-thiazol-5-yl)-pyrimidin-2-yl]-(4-morpholinophenyl)-amine] | 71000 nM | > 100000 nM | – | 1400 nM | 150 nM | 106000 nM | > 100000 nM | 12000 nM | 8500 nM | > 100000 nM | > 100000 nM | > 150000 nM | > 100000 nM | > 100000 nM | 3700 nM | – | 2800 nM | – | – | 3100 nM | – |
| Cc1nc(N)sc1-c1ccnc(Nc2ccc(N3CCOCC3)cc2)n1 [Compound 1, [4-(2-Amino-4-methyl-thiazol-5-yl)-pyrimidin-2-yl]-(4-morpholin-4-yl-phenyl)-amine] | – | – | – | – | – | 30000 nM | 56000 nM | – | – | – | – | – | – | > 100000 nM | 2100 nM | 1000 nM | 1700 nM | 1100 nM | 100 nM | 1900 nM | IC50 [12]: 2100 nM; IC50 [13]: 900 nM; IC50 [15]: 3800 nM; IC50 [16]: 200 nM; IC50 [17]: 300 nM; IC50 [18]: 1500 nM |
| CNc1nc(C)c(-c2ccnc(Nc3ccc(N4CCN(Cc5ccccc5)CC4)cc3)n2)s1 [Compound 11, [4-(4-Benzyl-piperazin-1-yl)-phenyl]-[4-(4-methyl-2-methylamino-thiazol-5-yl)-pyrimidin-2-yl]-amine] | 2400 nM | 2400 nM | 260 nM | 9.8 nM | 9.8 nM | 19 nM | 19 nM | 1100 nM | 1100 nM | 6000 nM | 6000 nM | 19000 nM | 19000 nM | > 100000 nM | 2200 nM | 2200 nM | 1600 nM | 1600 nM | 3700 nM | 3600 nM | IC50 [2, 22]: 260 nM; IC50 [12]: 2300 nM; IC50 [13]: 1100 nM; IC50 [14]: 300 nM; IC50 [15]: 2100 nM; IC50 [16]: 700 nM; IC50 [17]: 600 nM; IC50 [18]: 1000 nM |
